Source: patent US4767761A, “Ornithine derivatives and their use as methotrexate-resistant cell inhibitors” (priority 1987, dated 1988)
Where two headings read alike, the source gives them in different places. One block for each molecule: values may come before it.

Assays:
[1] = system: L 1210/R81 murine leukemia cells; assay: Cytotoxicity assay against L 1210/R81 murine leukemia cells, 48 hours; type: cell-based; conditions: for IC50: Mus musculus, L1210 ( R81), read-out: L1210/R81 cell growth inhibition IC50; for L1210/R81 normalized relative to MTX: number in parentheses
Method: (§1) A cytotoxicity assay was carried out for the same group of compounds against L 1210 and L 1210/R81 murine leukemia cells cultured for 48 hours in RPMI 1640 medium containing 10% fetal bovine serum, using the procedure of Mosman, J. Immunol. Meth., Vol. 65, 55-63 (1983).

[2] = system: cell growth in culture; conditions: result in words; Rosowsky et al. (1986); cited from earlier work
[3] = system: L 1210 murine leukemia cells; assay: Cytotoxicity assay against L 1210 murine leukemia cells, 48 hours; type: cell-based; conditions: for IC50: Mus musculus, read-out: L1210 cell growth inhibition IC50; for L1210 normalized relative to MTX: number in parentheses
Method: as §1

[4] = system: dihydrofolate reductase (DHFR); conditions: result in words; Rosowsky et al. (1986); cited from earlier work
[5] = system: folylpolyglutamate synthetase (FPGS); conditions: result in words; Rosowsky et al. (1986); cited from earlier work
[6] = target: T1, DHFR (Dihydrofolate Reductase) from L 1210/R81 murine leukemia cells (Mus musculus, UniProt P00375); assay: Inhibition of DHFR purified by MTX affinity chromatography from L 1210/R81 murine leukemia cells (spectrophotometric, 340 nm); type: biochemical; conditions: range of six separate experiments on different days (footnote a, Table 1)
T1 construct: endogenous in cells; host or cells: L1210/R81 murine leukemia cells
T1 sequence (P00375 1-187): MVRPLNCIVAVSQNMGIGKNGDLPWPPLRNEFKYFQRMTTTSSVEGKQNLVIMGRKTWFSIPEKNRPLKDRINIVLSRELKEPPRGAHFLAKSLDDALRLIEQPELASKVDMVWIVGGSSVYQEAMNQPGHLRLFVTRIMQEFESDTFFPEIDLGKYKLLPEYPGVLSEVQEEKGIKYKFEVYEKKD
Method: Inhibition of DHFR purified by MTX affinity chromatography from L 1210/R81 murine leukemia cells was determined. […] Certain of the compounds were also tested as inhibitors of partially purified FPGS from mouse liver.
IC50 concentrations (μM) were […]

[7] = system: CEM lymphoblasts; assay: Cell growth inhibition against human CEM lymphoblasts, 48 hours; type: cell-based; conditions: for IC50: Homo sapiens, CCRF-CEM, read-out: CEM cell growth inhibition IC50; for CEM normalized relative to MTX: number in parentheses
Method: (§2) In addition, four of the compounds were tested against human CEM and CEM/MTX lymphoblasts cultured fcr 48 hours in Dulbecco's modified Eagle's medium containing 10% fetal bovine serum.

[8] = system: CEM/MTX lymphoblasts; assay: Cell growth inhibition against human CEM/MTX lymphoblasts, 48 hours; type: cell-based; conditions: for IC50: Homo sapiens, read-out: CEM/MTX cell growth inhibition IC50; for CEM/MTX normalized relative to MTX: number in parentheses
Method: as §2

[9] = system: L1210, L1210/R81, CEM and CEM/MTX cells; assay: Cell growth inhibition of Table 2 (joint statement); type: cell-based, murine; human; conditions: comparison with the other compounds
Method: as §1
In addition, four of the compounds were tested against human CEM and CEM/MTX lymphoblasts cultured fcr 48 hours in Dulbecco's modified Eagle's medium containing 10% fetal bovine serum. The IC50 (μM) values, with normalized values relative to MTX given in parentheses, are reported in the last two columns of Table 2.

[10] = system: SCC25/R1 cells; assay: Growth inhibition of MTX-resistant human squamous carcinoma cells SCC25/R1; type: cell-based; conditions: SCC-25, 336 h, continuous exposure about two weeks
[11] = system: SCC15/R1 cells; assay: Growth inhibition of MTX-resistant human squamous carcinoma cells SCC15/R1; type: cell-based; conditions: SCC-15, 336 h, continuous exposure about two weeks
[12] = system: SCC25 cells; assay: Growth inhibition of human squamous carcinoma cells SCC25; type: cell-based; conditions: SCC-25, 336 h, continuous exposure about two weeks
[13] = system: SCC15 cells; assay: Growth inhibition of human squamous carcinoma cells SCC15; type: cell-based; conditions: SCC-15, 336 h, continuous exposure about two weeks
[14] = system: parental SCC15 and SCC25 cells; assay: Growth inhibition of parental SCC15 and SCC25 cells (joint statement); type: cell-based, human
[15] = system: SCC15 cells; conditions: taken from Rosowsky et al. (1985); cited from earlier work
[16] = system: SCC25/R1 cells; conditions: taken from Rosowsky et al. (1985); cited from earlier work
[17] = system: SCC25 cells; conditions: taken from Rosowsky et al. (1985); cited from earlier work
[18] = system: mouse liver FPGS; conditions: footnote c, Table 1; see Moran et al.; cited from earlier work
[19] = system: SCC15/R1 cells; conditions: taken from Rosowsky et al. (1985); cited from earlier work
[20] = system: MTX-resistant SCC15/R1 and SCC25/R1 sublines; assay: Growth inhibition of MTX-resistant SCC15/R1 and SCC25/R1 sublines (joint statement); type: cell-based, human
[21] = L1210, 48 hours, RPMI 1640, 10% fetal bovine serum
[22] = 48 hours, RPMI 1640, 10% fetal bovine serum
[23] = 48 hours, Dulbecco's modified Eagle's medium, 10% fetal bovine serum

SMILES: Nc1nc(N)c2nc(CNc3ccc(C(=O)N[C@@H](CCC(=O)O)C(=O)O)cc3)cnc2n1 [Aminopterin, reference compound]
IC50 ([1]; 48 h): 84000 nM

SMILES: NCCC[C@H](NC(=O)c1ccc(NCc2cnc3nc(N)nc(N)c3n2)cc1)C(=O)O [Compound 1, N^α -(4-Amino-4-deoxypteroyl)-L-ornithine]
inhibitor of cell growth in culture [2]: relatively inactive
IC50 ([3]; L1210, 48 h): 1300 nM
inhibitor of dihydrofolate reductase [4]: potent inhibitor
IC50 ([1]; 48 h): 32000 nM
inhibitor of folylpolyglutamate synthetase [5]: potent inhibitor

SMILES: CC(=O)NCCC[C@H](NC(=O)c1ccc(NCc2cnc3nc(N)nc(N)c3n2)cc1)C(=O)O [Compound 2]
IC50 [3, 21]: 17 nM
L1210 normalized relative to MTX [3]: 0.27
IC50 [1, 22]: 81000 nM
L1210/R81 normalized relative to MTX [1]: 2.5

IC50 [6]: 0.56 to 1.5 nM
SMILES: Nc1nc(N)c2nc(CNc3ccc(C(=O)N[C@@H](CCCNC(=O)c4ccccc4)C(=O)O)cc3)cnc2n1 [Compound 4]
IC50 [7, 23]: 6.6 nM
CEM normalized relative to MTX [7]: 5.0
IC50 [3, 21]: 0.89 nM
L1210 normalized relative to MTX [3]: 5.2
IC50 [8, 23]: 1100 nM
CEM/MTX normalized relative to MTX [8]: 6.0
IC50 [1, 22]: 17000 nM
L1210/R81 normalized relative to MTX [1]: 12

SMILES: Nc1nc(N)c2nc(CNc3ccc(C(=O)N[C@@H](CCCNC(=O)c4ccc(Cl)cc4)C(=O)O)cc3)cnc2n1 [Compound 5]
IC50 [7, 23]: 270 nM
CEM normalized relative to MTX [7]: 0.12
IC50 [3, 21]: 3.2 nM
L1210 normalized relative to MTX [3]: 1.4
IC50 [8, 23]: 1000 nM
CEM/MTX normalized relative to MTX [8]: 6.6
IC50 [1, 22]: 27000 nM
L1210/R81 normalized relative to MTX [1]: 7.4

SMILES: Nc1nc(N)c2nc(CNc3ccc(C(=O)N[C@@H](CCCNC(=O)c4ccc(Cl)c(Cl)c4)C(=O)O)cc3)cnc2n1 [Compound 6]
IC50 [7, 23]: 7400 nM
CEM normalized relative to MTX [7]: 0.0043
IC50 [3, 21]: 32 nM
L1210 normalized relative to MTX [3]: 0.14
IC50 [8, 23]: 10000 nM
CEM/MTX normalized relative to MTX [8]: 0.66
IC50 [1, 22]: 127000 nM
L1210/R81 normalized relative to MTX [1]: 1.6

SMILES: Nc1nc(N)c2nc(CNc3ccc(C(=O)N[C@@H](CCCNC(=O)c4ccccc4C(=O)O)C(=O)O)cc3)cnc2n1 [Compound 7, N^α -(4-Amino-4-deoxypteroyl)-N^67-hemi-phthaloyl-L-Ornithine]
activity shown in Table 2, result in words [9]: high activity
IC50 ([7]; 48 h): 4.3 nM
IC50 [10]: 1.3 nM
IC50 ([3]; L1210, 48 h): 0.75 nM
IC50 ([8]; 48 h): 420 nM
IC50 [11]: 4 nM
IC50 [12]: 0.96 nM
IC50 [13]: 1.1 nM
more potent than MTX against the parental SCC15 and SCC25 cells ([14]; more potent than MTX): 10- to 30 fold

SMILES: CN(Cc1cnc2nc(N)nc(N)c2n1)c1ccc(C(=O)N[C@@H](CCC(=O)O)C(=O)O)cc1 [Methotrexate]
IC50 ([7]; 48 h): 32 nM
IC50 [15]: 38 nM
IC50 ([8]; 48 h): 6600 nM
IC50 [16]: 150 nM
IC50 ([1]; 48 h): 200000 nM
IC50 [17]: 7.5 nM
substrate for mouse liver FPGS [18]: substrates
IC50 [19]: 580 nM

SMILES: CN(Cc1cnc2nc(N)nc(N)c2n1)c1ccc(C(=O)N[C@@H](CCC(=O)OC(C)(C)C)C(=O)O)cc1 [γ-t-butyl ester of MTX, γ-tert. -butyl ester of methotrexate]
IC50 [15]: 600 nM
IC50 [16]: 780 nM
IC50 [17]: 400 nM
IC50 [19]: 1300 nM
less potent than MTX against the parental SCC15 and SCC25 cells ([14]; less potent than MTX): at least 10 fold
less potent than MTX against the MTX-resistant SCC15/R1 and SCC25/R1 sublines [20]: at least 30 fold
